From ChEMBL document CHEMBL1909046, “DrugMatrix in vitro pharmacology data” come the findings set out here.

One assay concerns the target Histamine H2 receptor (Homo sapiens, UniProt P25021). The assay is classed as cell membranes, CHO-K1, Membrane. To be noted: cho-k1. Further: in other assays of this panel Not Active means under 50% inhibition at 10 µM.
A further assay concerns the target Mu-type opioid receptor (Homo sapiens, UniProt P35372). The experiment in a line: DRUGMATRIX: Opiate mu (OP3, MOP) radioligand binding (ligand: [3H] Diprenorphine). The assay is classed as cell membranes, CHO-K1, Membrane. To be noted: cho-k1; Not Active = under 50% inhibition at 10 µM.
For another assay, the target named is Substance-P receptor (Homo sapiens, UniProt P25103). In kind it is cell membranes, Membrane. The settings on record: cho. Further: in other assays of this panel Not Active means under 50% inhibition at 10 µM.
Substance-P receptor, sequence (P25103 whole entry): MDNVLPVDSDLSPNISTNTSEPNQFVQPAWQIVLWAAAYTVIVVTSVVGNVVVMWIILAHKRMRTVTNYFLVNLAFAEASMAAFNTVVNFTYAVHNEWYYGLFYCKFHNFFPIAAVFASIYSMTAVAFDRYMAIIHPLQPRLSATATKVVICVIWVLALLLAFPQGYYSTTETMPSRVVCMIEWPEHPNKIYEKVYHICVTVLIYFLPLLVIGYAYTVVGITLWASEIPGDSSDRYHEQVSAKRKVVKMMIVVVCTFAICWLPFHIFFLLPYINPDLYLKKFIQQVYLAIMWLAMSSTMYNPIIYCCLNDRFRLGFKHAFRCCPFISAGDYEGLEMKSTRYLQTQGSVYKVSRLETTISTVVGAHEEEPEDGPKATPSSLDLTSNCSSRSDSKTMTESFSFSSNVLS
Assay [1] addresses T1, Alpha-2A adrenergic receptor (Homo sapiens, UniProt P08913).
T1 sequence (P08913 whole entry): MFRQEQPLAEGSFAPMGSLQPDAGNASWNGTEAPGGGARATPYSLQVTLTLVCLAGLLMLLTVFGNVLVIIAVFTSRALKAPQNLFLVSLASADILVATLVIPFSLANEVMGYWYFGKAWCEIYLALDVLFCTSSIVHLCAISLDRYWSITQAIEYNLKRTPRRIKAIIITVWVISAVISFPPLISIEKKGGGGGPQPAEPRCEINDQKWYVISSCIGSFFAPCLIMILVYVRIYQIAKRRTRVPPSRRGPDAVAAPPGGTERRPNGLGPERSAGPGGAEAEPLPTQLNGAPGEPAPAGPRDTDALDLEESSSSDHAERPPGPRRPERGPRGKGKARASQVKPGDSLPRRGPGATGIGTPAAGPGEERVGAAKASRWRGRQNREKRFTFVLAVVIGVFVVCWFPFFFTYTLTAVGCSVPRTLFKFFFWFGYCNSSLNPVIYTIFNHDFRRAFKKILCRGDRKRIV
The assay is classed as cell membranes, Sf9, Membrane.

Assay [2] concerns the target Tyrosine-protein kinase Lck (Homo sapiens, UniProt P06239). Briefly: DRUGMATRIX: Protein Tyrosine Kinase, LCK enzyme inhibition (substrate: Poly(Glu:Tyr)). In kind it is cell-based, Insect cells. The settings on record: insect cells; Not Active = under 50% inhibition at 10 µM.

Where a SMILES comes first, the peptide text is derived from it. Bridges are numbered along the chain shown (N, C = ends). [ ]: non-standard residue; d: D form. The star is where a group is joined. Threoninol(2S,3R) = C[C@@H](O)[C@H](CO)N*

Histamine H2 receptor, sequence (P25021 whole entry): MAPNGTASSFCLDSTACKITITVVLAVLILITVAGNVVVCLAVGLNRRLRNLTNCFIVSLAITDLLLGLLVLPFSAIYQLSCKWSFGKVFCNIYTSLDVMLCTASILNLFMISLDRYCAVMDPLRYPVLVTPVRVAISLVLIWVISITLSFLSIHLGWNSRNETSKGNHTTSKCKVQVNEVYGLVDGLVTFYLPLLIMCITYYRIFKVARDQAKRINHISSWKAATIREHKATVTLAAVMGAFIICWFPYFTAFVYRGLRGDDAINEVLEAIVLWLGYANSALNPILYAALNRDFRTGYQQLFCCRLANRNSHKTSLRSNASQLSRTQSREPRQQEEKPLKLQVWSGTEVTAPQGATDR
Tyrosine-protein kinase Lck, sequence (P06239 whole entry): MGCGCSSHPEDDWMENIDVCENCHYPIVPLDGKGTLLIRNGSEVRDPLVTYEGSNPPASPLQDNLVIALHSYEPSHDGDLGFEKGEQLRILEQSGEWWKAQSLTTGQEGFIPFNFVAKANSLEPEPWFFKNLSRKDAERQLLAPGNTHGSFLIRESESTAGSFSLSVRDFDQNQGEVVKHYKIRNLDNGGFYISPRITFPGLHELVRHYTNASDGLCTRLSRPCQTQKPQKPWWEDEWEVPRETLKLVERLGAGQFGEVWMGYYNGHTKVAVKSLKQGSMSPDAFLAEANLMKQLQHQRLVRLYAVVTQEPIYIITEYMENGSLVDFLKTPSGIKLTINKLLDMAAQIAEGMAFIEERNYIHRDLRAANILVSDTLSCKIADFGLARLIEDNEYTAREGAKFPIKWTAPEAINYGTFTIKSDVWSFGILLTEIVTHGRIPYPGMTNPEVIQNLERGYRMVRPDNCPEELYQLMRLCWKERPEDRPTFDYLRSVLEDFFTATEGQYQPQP
Mu-type opioid receptor, sequence (P35372 whole entry): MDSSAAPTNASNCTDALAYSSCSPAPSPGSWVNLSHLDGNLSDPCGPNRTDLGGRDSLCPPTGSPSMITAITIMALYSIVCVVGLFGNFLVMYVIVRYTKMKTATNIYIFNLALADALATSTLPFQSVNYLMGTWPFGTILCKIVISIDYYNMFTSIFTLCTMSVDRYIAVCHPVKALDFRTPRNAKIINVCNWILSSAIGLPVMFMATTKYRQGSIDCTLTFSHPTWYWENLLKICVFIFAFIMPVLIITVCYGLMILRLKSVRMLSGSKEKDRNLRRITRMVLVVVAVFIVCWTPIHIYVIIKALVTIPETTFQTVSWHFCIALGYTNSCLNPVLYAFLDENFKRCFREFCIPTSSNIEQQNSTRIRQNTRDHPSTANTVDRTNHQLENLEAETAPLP

The IC50 is the concentration that inhibits the measured activity by half. In the case of `COc1ccccc1C(=O)N1CCC(Cc2ccccc2)CC1`, the 50% inhibitory concentration (IC50) entry (on Histamine H2 receptor; at Mu-type opioid receptor; on Substance-P receptor; in assay [1] (sf9); in assay [2]) was “Not Active” in each case.
`Cc1ccccc1C(=O)N1CCC(Cc2ccccc2)CC1`: the IC50 entry (against Histamine H2 receptor; on Mu-type opioid receptor; on Substance-P receptor; in assay [1] (sf9); in assay [2]) was “Not Active” throughout.
Take `O=C1CC[C@H](N2C(=O)c3ccccc3C2=O)C(=O)N1`: the half-maximal inhibitory concentration (IC50) result (against Histamine H2 receptor; at Mu-type opioid receptor; at Substance-P receptor; in assay [1] (sf9); in assay [2]) was “Not Active” throughout.
For the compound `N=C(Nc1ccccc1)Nc1ccccc1`, the half-maximal inhibitory concentration (IC50) result (against Histamine H2 receptor; on Mu-type opioid receptor; against Substance-P receptor; in assay [1] (sf9); in assay [2]) was “Not Active” in each case.
For `C[C@@H](O)[C@H](CO)NC(=O)[C@@H]1CSSC[C@H](NC(=O)[C@H](N)Cc2ccccc2)C(=O)N[C@@H](Cc2ccccc2)C(=O)N[C@H](Cc2c[nH]c3ccccc23)C(=O)N[C@@H](CCCCN)C(=O)N[C@@H]([C@@H](C)O)C(=O)N1` (H-[dF]CF[dW]KTC-{Threoninol(2S,3R)}; disulfide 2-7), the concentration for half-maximal inhibition (IC50) result (against Histamine H2 receptor; at Mu-type opioid receptor; at Substance-P receptor; in assay [1] (sf9); in assay [2]) was “Not Active” throughout.
The Ki is a measure of affinity in units of concentration, obtained from inhibition or displacement. Take `S=C=Nc1cccc2ccccc12` [1-NAPHTHYLISOTHIOCYANATE]: the IC50 result on Histamine H2 receptor was “Not Active”; against Substance-P receptor, “Not Active”; in assay [1] (read-out: IC50), 6.27 µM; in assay [2], “Not Active”. Moreover, in assay [1] (read-out: Ki), the inhibition constant (Ki) came to 2350 nM.
As for `C[C@](O)(CS(=O)(=O)c1ccc(F)cc1)C(=O)Nc1ccc(C#N)c(C(F)(F)F)c1` [(R)-BICALUTAMIDE], the IC50 entry (at Histamine H2 receptor; at Mu-type opioid receptor; against Substance-P receptor; in assay [1] (sf9); in assay [2]) was “Not Active” throughout.
With `CCCC(=O)Nc1ccc(OCC(O)CNC(C)C)c(C(C)=O)c1` (stereo not given) [ACEBUTOLOL], the IC50 entry (on Histamine H2 receptor; on Mu-type opioid receptor; against Substance-P receptor; in assay [1] (sf9); in assay [2]) was “Not Active” in each case.
For `CC(=O)Nc1ccc(O)cc1` [ACETAMINOPHEN], the IC50 result (at Histamine H2 receptor; on Mu-type opioid receptor; against Substance-P receptor; in assay [1] (sf9); in assay [2]) was “Not Active” throughout.
As for `COc1cc2c(c3oc(=O)c4c(c13)CCC4=O)[C@@H]1C=CO[C@@H]1O2` [AFLATOXIN], the half-maximal inhibitory concentration (IC50) entry (on Histamine H2 receptor; on Mu-type opioid receptor; on Substance-P receptor; in assay [1] (sf9); in assay [2]) was “Not Active” throughout. In addition, the inhibition constant Ki entry (at Histamine H2 receptor; on Mu-type opioid receptor; on Substance-P receptor; in assay [1] (sf9); in assay [2]) was “Not Active” in each case.
Take `N=C(N)NC(=O)c1nc(Cl)c(N)nc1N` [AMILORIDE]: the IC50 result (against Histamine H2 receptor; at Mu-type opioid receptor; against Substance-P receptor; in assay [1] (sf9); in assay [2]) was “Not Active” in each case.
Consider `Cc1cc(=O)n(-c2ccccc2)n1C` [ANTIPYRINE], for which the concentration for half-maximal inhibition (IC50) entry (against Histamine H2 receptor; on Mu-type opioid receptor; against Substance-P receptor; in assay [1] (sf9); in assay [2]) was “Not Active” throughout.
Regarding `CN1C(=O)COc2c(C(=O)NC3CN4CCC3CC4)cc(Cl)cc21` (stereo not given) [AZASETRON], the concentration for half-maximal inhibition (IC50) result (on Histamine H2 receptor; at Mu-type opioid receptor; against Substance-P receptor; in assay [1] (sf9); in assay [2]) was “Not Active” throughout.
Turning to `C[C@H]1C[C@H]2[C@@H]3CCC4=CC(=O)C=C[C@]4(C)[C@@]3(Cl)[C@@H](O)C[C@]2(C)[C@@]1(O)C(=O)CO` [BECLOMETHASONE], the IC50 entry (on Histamine H2 receptor; at Mu-type opioid receptor; against Substance-P receptor; in assay [1] (sf9); in assay [2]) was “Not Active” throughout.
`CCOC(=O)[C@H](CCc1ccccc1)N[C@H]1CCc2ccccc2N(CC(=O)O)C1=O` [BENAZEPRIL]: the IC50 entry (at Histamine H2 receptor; at Mu-type opioid receptor; on Substance-P receptor; in assay [1] (sf9); in assay [2]) was “Not Active” each time.
`Nc1c(CC(=O)O)cccc1C(=O)c1ccc(Br)cc1` [BROMFENAC]: the concentration for half-maximal inhibition (IC50) result (on Histamine H2 receptor; at Mu-type opioid receptor; at Substance-P receptor; in assay [1] (sf9); in assay [2]) was “Not Active” throughout.
Turning to `CCCCN1CCCCC1C(=O)Nc1c(C)cccc1C.Cl` (stereo not given) [BUPIVACAINE HYDROCHLORIDE], the half-maximal inhibitory concentration (IC50) result (at Histamine H2 receptor; on Mu-type opioid receptor; at Substance-P receptor; in assay [1] (sf9); in assay [2]) was “Not Active” throughout.
Regarding `O=C1CC2(CCCC2)CC(=O)N1CCCCN1CCN(c2ncccn2)CC1` [BUSPIRONE], the IC50 entry (against Histamine H2 receptor; at Mu-type opioid receptor; against Substance-P receptor; in assay [1] (sf9); in assay [2]) was “Not Active” in each case.
With `C[C@@]12C(=O)OC(=O)[C@]1(C)[C@H]1CC[C@@H]2O1` [CANTHARIDIN], the half-inhibitory concentration (IC50) entry (at Histamine H2 receptor; at Substance-P receptor; in assay [1] (sf9); in assay [2]) was “Not Active” in each case.
Take `O=NN(CCCl)C(=O)NCCCl` [CARMUSTINE]: the half-maximal inhibitory concentration (IC50) result (against Histamine H2 receptor; at Mu-type opioid receptor; against Substance-P receptor; in assay [1] (sf9); in assay [2]) was “Not Active” each time.
On to `CC1=C(C(=O)O)N2C(=O)[C@@H](NC(=O)[C@H](N)c3ccccc3)[C@H]2SC1` [CEPHALEXIN ANHYDROUS], for which the IC50 result (against Histamine H2 receptor; at Mu-type opioid receptor; on Substance-P receptor; in assay [1] (sf9); in assay [2]) was “Not Active” each time.
As to `O=C(N[C@H](CO)[C@H](O)c1ccc([N+](=O)[O-])cc1)C(Cl)Cl` [CHLORAMPHENICOL], the concentration for half-maximal inhibition (IC50) entry (at Histamine H2 receptor; on Mu-type opioid receptor; at Substance-P receptor; in assay [1] (sf9); in assay [2]) was “Not Active” in each case.
As for `ClC(Cl)Cl` [CHLOROFORM], the IC50 entry (against Histamine H2 receptor; on Mu-type opioid receptor; on Substance-P receptor; in assay [1] (sf9); in assay [2]) was “Not Active” in each case.
In the case of `C=C1CC[C@H](O)C/C1=C/C=C1\CCC[C@]2(C)[C@@H]([C@H](C)CCCC(C)C)CC[C@@H]12` [CHOLECALCIFEROL], the concentration for half-maximal inhibition (IC50) entry (on Histamine H2 receptor; on Mu-type opioid receptor; on Substance-P receptor; in assay [1] (sf9); in assay [2]) was “Not Active” each time.
On to `C[N+](C)(C)CCO.[Cl-]` [CHOLINE CHLORIDE], for which the IC50 result (against Histamine H2 receptor; on Mu-type opioid receptor; against Substance-P receptor; in assay [1] (sf9); in assay [2]) was “Not Active” throughout.
Turning to `CCOC(=O)C(C)(C)Oc1ccc(Cl)cc1` [CLOFIBRATE], the IC50 entry (against Histamine H2 receptor; on Mu-type opioid receptor; at Substance-P receptor; in assay [1] (sf9); in assay [2]) was “Not Active” throughout.
In the case of `CC(=O)OCC(=O)[C@@]1(O)CC[C@H]2[C@@H]3CCC4=CC(=O)CC[C@]4(C)[C@H]3C(=O)C[C@@]21C` [CORTISONE ACETATE], the concentration for half-maximal inhibition (IC50) result (at Histamine H2 receptor; at Mu-type opioid receptor; against Substance-P receptor; in assay [1] (sf9); in assay [2]) was “Not Active” in each case.
With `O=c1ccc2ccccc2o1` [COUMARIN], the IC50 entry (at Histamine H2 receptor; on Mu-type opioid receptor; on Substance-P receptor; in assay [1] (sf9); in assay [2]) was “Not Active” in each case.
For the compound `C[C@@H]1C[C@@H]([C@H](O)CC2CC(=O)NC(=O)C2)C(=O)[C@@H](C)C1` [CYCLOHEXIMIDE], the half-maximal inhibitory concentration (IC50) result (at Histamine H2 receptor; against Substance-P receptor; in assay [1] (sf9); in assay [2]) was “Not Active” in each case.
As to `COP(=O)(OC)OC=C(Cl)Cl` [DICHLORVOS], the IC50 entry (on Histamine H2 receptor; on Substance-P receptor; in assay [1] (sf9); in assay [2]) was “Not Active” each time.
Consider CADMIUM DICHLORIDE, for which the IC50 result on Histamine H2 receptor was “Not Active”; against Substance-P receptor, “Not Active”; in assay [1] (sf9, read-out: IC50), 6.92 µM; in assay [2], “Not Active”. The Ki entry at Histamine H2 receptor was “Not Active”; at Substance-P receptor it was “Not Active”; in assay [1] (sf9, read-out: Ki) it was 2590 nM; in assay [2], “Not Active”.
